Assay results published in patent US20240319167A1, “CELL INFORMATION ACQUISITION METHOD, AND PROGRAM” (CANON KABUSHIKI KAISHA, priority 2023, published 2024).

How the values were obtained:
[1] = tested on: COR-L23 cells; assay: Autofluorescence luminance ratio (G component/B component) after adding metabolism changing reagent; assay type: cell-based, human; conditions: antimycin A 1 μM where added, incubated an hour after D-glucose removal, FIG. 3
Protocol: (§1) Human lung cancer cells NCI-H322 (KAC Co., Ltd.) were cultured in a culture medium 103 for cell culture (KAC Co., Ltd.). Human lung cancer cells COR-L23 (KAC Co., Ltd.) were cultured in a culture medium 103 for cell culture (KAC Co., Ltd.). A cell culture vessel was a 35 mm glass bottom dish (IWAKI) for any case. […] The area of a nucleus region was acquired and labelled. […] Average value of G component/Average value of B component was calculated cell by cell and plotted as a box-and-whisker plot (FIG. 3). […] NCI-H322 cells were cultured in a 35 mm glass bottom dish, and COR-L23 cells were cultured in a 35 mm glass bottom dish. […] As negative control, only removal of D-glucose was performed for both NCI-H322 cells and COR-L23 cells to create samples not added with a metabolism changing reagent. An autofluorescence image of each of the samples was captured. Subsequently, nuclear staining and mitochondria staining were performed to stain nuclei and mitochondria, and similarly stained images were captured with an image capturing apparatus.

[2] = tested on: NCI-H322 cells; assay: as above; assay type: cell-based, human; conditions: antimycin A 1 μM where added, incubated an hour after D-glucose removal, FIG. 3
Protocol: as §1

O=C[C@H](O)[C@@H](O)[C@H](O)[C@H](O)CO [D-glucose]
G component/B component of autofluorescence (365 nm excitation/430 nm long pass filter) versus negative control [1]: no significant difference | G component/B component of autofluorescence (365 nm excitation/430 nm long pass filter) versus negative control [2]: no significant difference
